Key:
[1] = test system: Mus musculus; experiment: In vivo inhibitory activity against metrazole-induced seizures in mice by peroral administration; format: functional; conditions: po
[2] = target: GABA-A receptor; anion channel; experiment: In vitro inhibitory against Gamma-aminobutyric acid A receptor from rat cerebral cortex using [3H]flunitrazepam as the radioligand; format: tissue-based
[3] = target: GABA-A receptor; anion channel (Rattus norvegicus) (UniProt O09028+P15431+P18506+P18508+P19969+P20236+P23574+P23576+P28471+P28473+P30191+P62813+P63079+P63138+Q91ZM7+Q9ES14); experiment: GABA shift which is the ratio of binding in the absence and presence of GABA (1 mM) was determined; format: protein-complex assay
[4] = test system: Mus musculus; experiment: In vivo inhibitory activity against metrazole-induced seizures in mice by intraperitoneal administration; format: functional; conditions: ip
[5] = test system: Rattus norvegicus; experiment: Inhibitory activity determined by experimentally-induced conflict test in rats after oral administration; format: functional; conditions: read-out: MED
[6] = test system: Rattus norvegicus; experiment: Inhibition of experimentally-induced conflict in rats following i.p. administration.; format: functional; conditions: ip, read-out: MED

Structure (SMILES) | ED50 [1] [mg/kg] | IC50 [2] [nM] | GS [3] | ED50 [4] [mg/kg] | minimal effective dose [5] [mg/kg] | minimal effective dose [6] [mg/kg]
O=C(Nc1ccccc1F)C1=C(O)CCn2c1nc1c3ccccc3ccc12 | > 30 | 154 | 2.8 | > 1 | > 10 | 
O=C(Nc1ccccc1F)C1=C(O)CCn2c1nc1c(F)c(F)ccc12 | 0.2 | 1.4 | 1.7 | 0.2 | 10 | 
O=C(Nc1ccccc1F)C1=C(O)CCn2c1nc1c(O)cccc12 |  | 10.4 | 3 |  | > 10 | 
O=C(Nc1c(F)cccc1F)C1=C(O)CCn2c1nc1cc(Cl)ccc12 | 10 | 6.3 | 2.2 | 1 | 10 | 10
O=C(Nc1c(F)cccc1F)C1=C(O)CCn2c1nc1cnccc12 |  | 17.7 | 2.4 | > 10 | 3 | 
O=C(Nc1ccccc1)C1=C(O)CCn2c1nc1cccnc12 | > 10 | 4380 | 2.1 | > 10 | > 30 | > 10
O=C(Nc1ccccc1)C1=C(O)CCn2c1nc1ncccc12 | < 30 | 8.3 | 3 | 3 | 30 | > 10
O=C(Nc1ccccc1F)C1=C(O)CCn2c1nc1cc(C(F)(F)F)ccc12 |  | 184 | 4.7 | 1 | > 10 | 
O=C(Nc1ccccc1F)C1=C(O)CCn2c1nc1cc3ccccc3cc12 | > 30 | 17 | 1 | 1 | > 10 | 10
O=C(Nc1ccccc1F)C1=C(O)CCn2c1nc1ccc3ccccc3c12 | > 30 | > 1000 |  | > 1 | > 10 | 
CN1C(=O)CN=C(c2ccccc2)c2cc(Cl)ccc21 [DIAZEPAM] | 0.5 |  | 2.2 | 0.11 | 10 | 5
COc1cccc2c1nc1n2CCC(O)=C1C(=O)Nc1c(F)cccc1F |  | 156 | 3.7 |  |  | 
O=C(Nc1c(F)cccc1F)C1=C(O)CCn2c1nc1cc(F)ccc12 | 3 | 6.3 | 2.2 | 0.3 | 3 | 3
Cc1cccc2c1nc1n2CCC(O)=C1C(=O)Nc1ccccc1 | > 10 | 10.1 | 2.8 | ~1 | > 30 | > 10
O=C(Nc1ccccc1F)C1=C(O)CCn2c1nc1ccc(F)c(F)c12 | > 1 | 857 | 2.5 | > 1 | > 10 | 
O=C(Nc1ccccc1F)C1=C(O)CCn2c1nc1cc(Cl)ccc12 | ~30 | 5.1 | 1.8 | 1 | > 10 | 10
O=C(Nc1c(F)cccc1F)C1=C(O)CCn2c1nc1c(F)c(F)ccc12 | 0.2 | 1.1 | 1.4 | 0.2 | 3 | 

Structure (SMILES) | ED50 [1] [mg/kg] | IC50 [2] [nM] | GS [3] | ED50 [4] [mg/kg] | minimal effective dose [5] [mg/kg] | minimal effective dose [6] [mg/kg]
COc1ccc2c(c1)nc1n2CCC(O)=C1C(=O)Nc1ccccc1 | > 10 | 39.5 | 2.5 | 3 | > 30 | > 10
O=C(Nc1ccccc1)C1=C(O)CCn2c1nc1ccc(Cl)cc12 | > 30 | 174 | 2.1 | > 10 | 30 | > 10
Cc1cccc2c1nc1n2CCC(O)=C1C(=O)Nc1ccccc1F | 10 | 96.3 | 1.5 | 1 | > 30 | 10
O=C(Nc1ccccc1F)C1=C(O)CCn2c1nc1cccc(O)c12 | > 30 | 14 | 2.8 | > 1 | > 30 | > 1
O=C(Nc1c(F)cccc1F)C1=C(O)CCn2c1nc1c(Cl)cccc12 | 10 | 1.1 | 1.7 | 0.3 | > 10 | 10
O=C(Nc1c(F)cccc1F)C1=C(O)CCn2c1nc1c(F)cc(F)cc12 | > 1 | 30.1 | 2.4 | > 1 | > 10 | 
O=C(Nc1ccccc1F)C1=C(O)CCn2c1nc1c(Cl)cccc12 | > 30 | 7.1 | 1.8 | 1 | > 10 | 10
O=C(Nc1ccccc1)C1=C(O)CCn2c1nc1cc(O)ccc12 | > 30 | 40.5 | 1.1 | > 30 | > 30 | > 30
O=C(Nc1c(F)cccc1F)C1=C(O)CCn2c1nc1ccc(F)c(F)c12 | > 1 | 66.2 | 1.7 | > 1 | > 10 | 
COc1cccc2c1nc1n2CCC(O)=C1C(=O)Nc1ccccc1F |  | 7.8 | 1.4 |  |  | 
O=C(Nc1ccccc1)C1=C(O)CCn2c1nc1cc(Cl)ccc12 | 20 | 65.6 | 1.6 | 1 | > 30 | 10
O=C(Nc1c(F)cccc1F)C1=C(O)CCn2c1nc1ncccc12 | 30 | 30.1 | 1.8 | 3 | > 10 | > 10
O=C(Nc1ccccc1F)C1=C(O)CCn2c1nc1cc(F)ccc12 | > 30 | 1.9 | 1.8 | < 1 | > 30 | 10
O=C(Nc1ccccc1F)C1=C(O)CCn2c1nc1ncccc12 | 10 | 3.5 | 2.7 | 1 | > 30 | 10
O=C(Nc1ccccc1F)C1=C(O)CCn2c1nc1c(F)cc(F)cc12 | > 1 | 19.8 | 1.2 | > 1 | > 10 | 
O=C(Nc1ccccc1F)C1=C(O)CCn2c1nc1cccnc12 | > 10 | 291 | 1.3 | > 10 | > 30 | > 10
COc1ccc2c(c1)nc1n2CCC(O)=C1C(=O)Nc1ccccc1F | > 10 | 6.1 | 1.2 | > 10 | > 30 | > 10
